These results are taken from publication PMC4890002, “The CebE/MsiK Transporter is a Doorway to the Cello-oligosaccharide-mediated Induction of Streptomyces scabies Pathogenicity” (Scientific Reports, 2016).

Usually Kd stands for the concentration at which binding is half-saturated.

Read-outs that look alike come from different tables or passages of the source.

In series [1] the target is T1, CebE (SCAB57751, CebE^scab) (Streptomyces scabiei, UniProt C9Z451).
T1 construct: gene SCAB_57751; N-terminally 6His-tagged CebE without its first 44 codons (signal peptide and membrane-anchoring lipopeptide), produced in E. coli
T1 sequence (C9Z451 45-454): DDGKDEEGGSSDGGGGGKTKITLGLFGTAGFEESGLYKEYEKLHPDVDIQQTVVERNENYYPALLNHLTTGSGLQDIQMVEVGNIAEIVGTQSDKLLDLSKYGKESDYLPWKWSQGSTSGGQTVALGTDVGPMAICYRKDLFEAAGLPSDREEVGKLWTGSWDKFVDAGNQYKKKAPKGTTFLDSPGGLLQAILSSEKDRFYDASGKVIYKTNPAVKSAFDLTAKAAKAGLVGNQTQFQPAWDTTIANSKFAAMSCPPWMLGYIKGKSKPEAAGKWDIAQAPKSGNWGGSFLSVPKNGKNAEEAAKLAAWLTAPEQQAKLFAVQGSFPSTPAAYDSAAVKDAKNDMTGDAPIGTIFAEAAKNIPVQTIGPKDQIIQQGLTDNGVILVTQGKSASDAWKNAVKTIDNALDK
Nature of the series: intrinsic tryptophan fluorescence titration of purified protein. Format: binding.

In another series the target is T2, CebR (SCAB57761) (Streptomyces scabiei, UniProt C9Z452).
T2 construct: gene SCAB_57761; CebR-His6 (pure)
Nature of the series: EMSA: loss of DNA binding of pure CebR-His6 preincubated with the sugar. The class given is biochemical.

The target of a further series is CebR (UniProt C9Z452 1-352). Description: EMSA; CebR 0-480 nM; no oligosaccharide; EMSA as in earlier work (buffer, salt, pH not given); 15 pmol Cy5 probe and 150 pmol CebR-6His in Methods, legend gives 6 nM probe (panel D) and CebR 0-480 nM (panel C); 1% agarose gel run at room temperature. The note with it: protein: recombinant; tags: His6 (printed as CebR-6His / CebR-His6); chain copies: 2; blunt.

Take `OC[C@H]1O[C@@H](O[C@H]2[C@H](O)[C@@H](O)C(O)O[C@@H]2CO)[C@H](O)[C@@H](O)[C@@H]1O` (some centres unmarked) [(Glc)2, cellobiose]: the Kd in series [1] worked out at 14 nM. Also, the “EMSA: loss of DNA binding of pure CebR-His6 preincubated with the sugar” value at CebR (SCAB57761) is “EMSAs demonstrating that cellobiose and cellotriose are able to inhibit the DNA-binding ability of CebR”.
In the case of `OC[C@H]1O[C@@H](O[C@H]2[C@H](O)[C@@H](O)[C@H](O[C@H]3[C@H](O)[C@@H](O)C(O)O[C@@H]3CO)O[C@@H]2CO)[C@H](O)[C@@H](O)[C@@H]1O` (some centres unmarked) [(Glc)3, cellotriose], the Kd in series [1] (read-out: Kd) turned out to be 2 nM. For the same molecule, the “EMSA: loss of DNA binding of pure CebR-His6 preincubated with the sugar” value on CebR (SCAB57761) was “EMSAs demonstrating that cellobiose and cellotriose are able to inhibit the DNA-binding ability of CebR”.

B1: cbsbglC probe (dsDNA)
DNA 1: CGACCACCAATGGGAGCGCTTCCATGCCTGAACC
DNA 2: GGTTCAGGCATGGAAGCGCTCCCATTGGTGGTCG
B1: the binding result with CebR is given as “binds”.
